Test results from ChEMBL document CHEMBL5036349, “Development of potent dual PDK1/AurA kinase inhibitors for cancer therapy: Lead-optimization, structural insights, and ADME-Tox profile” (Eur J Med Chem, 2021).
Blank lines part the entries; values can stand above or below the compound they belong to.

How the values were obtained:
[1] = biological target: 3-phosphoinositide-dependent protein kinase 1 (Homo sapiens) (UniProt O15530); experiment: Inhibition of recombinant full length human His-tagged PDK1 expressed in Baculovirus expression system in presence of ATP measured by […]
Aurora kinase A = biological target: T1, Aurora kinase A (Homo sapiens, UniProt O14965); experiment: Inhibition of recombinant full length human His-tagged AURA expressed in Baculovirus expression system in presence of ATP measured by […]
T1 sequence (O14965 whole entry): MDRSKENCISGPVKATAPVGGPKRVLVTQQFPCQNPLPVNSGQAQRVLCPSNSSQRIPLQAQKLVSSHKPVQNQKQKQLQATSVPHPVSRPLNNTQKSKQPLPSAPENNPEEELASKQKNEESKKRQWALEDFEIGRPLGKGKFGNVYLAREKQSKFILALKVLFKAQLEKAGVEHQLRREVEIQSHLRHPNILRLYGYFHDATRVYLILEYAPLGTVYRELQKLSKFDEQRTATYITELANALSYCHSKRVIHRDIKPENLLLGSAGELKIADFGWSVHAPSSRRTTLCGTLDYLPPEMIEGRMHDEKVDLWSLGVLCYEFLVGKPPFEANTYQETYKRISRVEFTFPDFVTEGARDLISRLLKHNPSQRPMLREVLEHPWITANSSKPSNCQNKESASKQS

[2] = Cytotoxicity against human 6647 cells measured after 72 hrs by MTT assay; format: functional, cell-based; details: Homo sapiens, 6647, 72 h
PC-3 = experiment: Cytotoxicity against human PC-3 cells measured after 72 hrs by MTT assay; format: functional, cell-based; details: PC-3, 72 h
HCT-116 = experiment: Cytotoxicity against human HCT-116 cells measured after 72 hrs by MTT assay; format: functional, cell-based; details: HCT-116, 72 h
CAKI-1 = experiment: Cytotoxicity against human CAKI-1 cells measured after 72 hrs by MTT assay; format: functional, cell-based; details: CAKI-1, 72 h
[3] = Cytotoxicity against human TC71 cells measured after 72 hrs by MTT assay; format: functional, cell-based; details: TC-71, 72 h
NCI-H69 [4] = experiment: Cytotoxicity against human NCI-H69 cells at 30 uM assessed as cell proliferation rate measured after 72 hrs by MTT assay relative to control; format: functional
NCI-H82 = experiment: Cytotoxicity against human NCI-H82 cells measured after 72 hrs by MTT assay; format: functional, cell-based; details: NCI-H82, 72 h
TC-32 [5] = experiment: Cytotoxicity against human TC-32 cells at 30 uM assessed as cell proliferation rate measured after 72 hrs by MTT assay relative to control; format: functional
IGROV-1 = experiment: Cytotoxicity against human IGROV-1 cells measured after 72 hrs by MTT assay; format: functional, cell-based; details: IGROV-1, 72 h
Rec1 = experiment: Cytotoxicity against human REC1 cells measured after 72 hrs by MTT assay; format: functional, cell-based; details: Rec1, 72 h
A673 = experiment: Cytotoxicity against human A673 cells measured after 72 hrs by MTT assay; format: functional, cell-based; details: A673, 72 h
NCI-H69 [6] = experiment: Cytotoxicity against human NCI-H69 cells measured after 72 hrs by MTT assay; format: functional, cell-based; details: NCI-H69, 72 h
TC-32 [7] = experiment: Cytotoxicity against human TC-32 cells measured after 72 hrs by MTT assay; format: functional, cell-based; details: TC-32, 72 h
MCF7 = experiment: Cytotoxicity against human MCF7 cells measured after 72 hrs by MTT assay; format: functional, cell-based; details: MCF7, 72 h
SK-N-MC = experiment: Cytotoxicity against human SK-N-MC cells measured after 72 hrs by MTT assay; format: functional, cell-based
786-0 = experiment: Cytotoxicity against human 786-0 cells measured after 72 hrs by MTT assay; format: functional, cell-based; details: 786-0, 72 h
[8] = Cytotoxicity against hTERT cells at 10 uM measured after 24 to 48 hrs by Cell-titer glo assay relative to control; format: cell-based; details: human, time 24-48 hrs
HEK293 = experiment: Cytotoxicity against HEK293 cells at 10 uM measured after 24 to 48 hrs by Cell-titer glo assay relative to control; format: cell-based; details: human, hek293, 10 µM, time 24-48 hrs
[9] = biological target: Aurora kinase B (Homo sapiens) (UniProt Q96GD4); experiment: Inhibition of Aurora B kinase (unknown origin) at 10 uM in presence of ATP incubated for 30 min followed by addition of kinase glo-reagent measured after 20 mins by Luminescence based plate reader assay relative to control; details: time 50.0 min
[10] = biological target: Histone deacetylase 9 (Homo sapiens) (UniProt Q9UKV0); experiment: Inhibition on human recombinant HDAC9 at 10 uM measured after 20 min by luminescence glo assay
[11] = biological target: T2, Histone deacetylase 8 (Homo sapiens) (UniProt Q9BY41); experiment: Inhibition on human recombinant HDAC8 at 10 uM measured after 20 min by luminescence glo assay
T2 sequence (whole entry): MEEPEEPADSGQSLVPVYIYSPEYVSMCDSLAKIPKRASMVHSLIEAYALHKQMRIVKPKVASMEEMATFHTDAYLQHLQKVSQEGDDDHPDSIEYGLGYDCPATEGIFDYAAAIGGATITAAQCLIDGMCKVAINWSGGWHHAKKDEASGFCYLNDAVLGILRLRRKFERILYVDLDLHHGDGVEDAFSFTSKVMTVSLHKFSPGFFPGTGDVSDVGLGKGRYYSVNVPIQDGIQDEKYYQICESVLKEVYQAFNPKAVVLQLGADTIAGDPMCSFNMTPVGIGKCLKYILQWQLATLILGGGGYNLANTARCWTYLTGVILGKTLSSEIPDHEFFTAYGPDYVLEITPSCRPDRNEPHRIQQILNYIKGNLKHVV

[12] = biological target: T3, Protein deacetylase HDAC6 (Homo sapiens) (UniProt Q9UBN7); experiment: Inhibition on human recombinant HDAC6 at 10 uM measured after 20 min by luminescence glo assay
T3 sequence (whole entry): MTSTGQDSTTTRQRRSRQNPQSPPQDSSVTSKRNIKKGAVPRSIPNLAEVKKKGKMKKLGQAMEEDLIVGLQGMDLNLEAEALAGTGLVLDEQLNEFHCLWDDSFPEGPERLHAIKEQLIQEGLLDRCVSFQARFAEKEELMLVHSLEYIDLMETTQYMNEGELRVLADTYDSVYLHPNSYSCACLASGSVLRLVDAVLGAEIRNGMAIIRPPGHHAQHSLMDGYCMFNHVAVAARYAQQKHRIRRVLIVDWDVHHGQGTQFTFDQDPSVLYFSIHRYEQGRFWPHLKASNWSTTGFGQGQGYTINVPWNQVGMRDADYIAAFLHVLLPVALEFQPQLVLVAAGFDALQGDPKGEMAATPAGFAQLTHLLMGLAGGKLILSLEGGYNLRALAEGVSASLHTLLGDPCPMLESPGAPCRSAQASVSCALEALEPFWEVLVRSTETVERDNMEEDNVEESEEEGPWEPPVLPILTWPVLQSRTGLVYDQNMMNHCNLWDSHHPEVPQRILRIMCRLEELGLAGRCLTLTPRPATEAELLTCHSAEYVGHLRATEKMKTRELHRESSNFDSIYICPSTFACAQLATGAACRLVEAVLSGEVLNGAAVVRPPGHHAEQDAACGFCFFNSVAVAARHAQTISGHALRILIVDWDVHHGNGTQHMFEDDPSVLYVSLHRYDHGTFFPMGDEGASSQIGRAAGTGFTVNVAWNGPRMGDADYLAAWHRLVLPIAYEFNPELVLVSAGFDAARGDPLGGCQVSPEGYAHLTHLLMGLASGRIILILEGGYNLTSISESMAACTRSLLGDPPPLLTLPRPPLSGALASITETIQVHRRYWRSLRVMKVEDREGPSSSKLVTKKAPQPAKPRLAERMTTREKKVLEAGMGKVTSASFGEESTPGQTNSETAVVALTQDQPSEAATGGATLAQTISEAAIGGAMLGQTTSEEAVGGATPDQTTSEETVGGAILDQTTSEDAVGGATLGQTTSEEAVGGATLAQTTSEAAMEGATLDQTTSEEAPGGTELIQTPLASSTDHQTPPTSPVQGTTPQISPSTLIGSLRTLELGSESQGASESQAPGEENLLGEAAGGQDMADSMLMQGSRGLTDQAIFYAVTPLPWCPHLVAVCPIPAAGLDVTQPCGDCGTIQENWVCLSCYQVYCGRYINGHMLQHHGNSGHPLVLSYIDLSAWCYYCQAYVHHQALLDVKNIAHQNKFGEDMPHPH

[13] = biological target: Histone deacetylase 4 (Homo sapiens) (UniProt P56524); experiment: Inhibition on human recombinant HDAC4 at 10 uM measured after 20 min by luminescence glo assay
[14] = biological target: 3',5'-cyclic-AMP phosphodiesterase 4C (Homo sapiens) (UniProt Q08493); experiment: Inhibition of PDE4C1 (unknown origin) at 10 uM incubated for 60 mins followed by addition of binding agent and measured after 20 mins by Fluorescence Polarization assay relative to control; details: time 80.0 min
[15] = biological target: T4, NAD-dependent protein deacetylase sirtuin-7 (Homo sapiens) (UniProt Q9NRC8); experiment: Inhibition of human recombinant SIRT7 at 10 uM incubated for 20 mins followed by mixing and measure after 30 mins by Luminescence assay relative to control; details: time 50.0 min
T4 sequence (whole entry): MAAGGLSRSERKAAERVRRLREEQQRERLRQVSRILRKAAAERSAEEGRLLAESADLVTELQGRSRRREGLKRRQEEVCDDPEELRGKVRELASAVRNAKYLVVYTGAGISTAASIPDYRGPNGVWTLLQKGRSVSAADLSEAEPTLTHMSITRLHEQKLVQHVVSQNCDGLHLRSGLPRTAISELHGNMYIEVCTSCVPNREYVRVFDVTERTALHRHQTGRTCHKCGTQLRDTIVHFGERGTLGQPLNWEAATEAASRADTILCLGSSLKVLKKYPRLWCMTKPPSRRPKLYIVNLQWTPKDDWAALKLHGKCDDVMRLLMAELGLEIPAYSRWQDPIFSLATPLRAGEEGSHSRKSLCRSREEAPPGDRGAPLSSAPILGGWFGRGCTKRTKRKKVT

[16] = biological target: {'v': 'hERG (KCNH2)', 'o': 'p', 'q': 'Inhibition of human ERG at 10 uM'} (Homo sapiens, UniProt Q12809); experiment: Inhibition of human ERG at 10 uM relative to control
Sequence of {'v': 'hERG (KCNH2)', 'o': 'p', 'q': 'Inhibition of human ERG at 10 uM'} (Q12809 whole entry): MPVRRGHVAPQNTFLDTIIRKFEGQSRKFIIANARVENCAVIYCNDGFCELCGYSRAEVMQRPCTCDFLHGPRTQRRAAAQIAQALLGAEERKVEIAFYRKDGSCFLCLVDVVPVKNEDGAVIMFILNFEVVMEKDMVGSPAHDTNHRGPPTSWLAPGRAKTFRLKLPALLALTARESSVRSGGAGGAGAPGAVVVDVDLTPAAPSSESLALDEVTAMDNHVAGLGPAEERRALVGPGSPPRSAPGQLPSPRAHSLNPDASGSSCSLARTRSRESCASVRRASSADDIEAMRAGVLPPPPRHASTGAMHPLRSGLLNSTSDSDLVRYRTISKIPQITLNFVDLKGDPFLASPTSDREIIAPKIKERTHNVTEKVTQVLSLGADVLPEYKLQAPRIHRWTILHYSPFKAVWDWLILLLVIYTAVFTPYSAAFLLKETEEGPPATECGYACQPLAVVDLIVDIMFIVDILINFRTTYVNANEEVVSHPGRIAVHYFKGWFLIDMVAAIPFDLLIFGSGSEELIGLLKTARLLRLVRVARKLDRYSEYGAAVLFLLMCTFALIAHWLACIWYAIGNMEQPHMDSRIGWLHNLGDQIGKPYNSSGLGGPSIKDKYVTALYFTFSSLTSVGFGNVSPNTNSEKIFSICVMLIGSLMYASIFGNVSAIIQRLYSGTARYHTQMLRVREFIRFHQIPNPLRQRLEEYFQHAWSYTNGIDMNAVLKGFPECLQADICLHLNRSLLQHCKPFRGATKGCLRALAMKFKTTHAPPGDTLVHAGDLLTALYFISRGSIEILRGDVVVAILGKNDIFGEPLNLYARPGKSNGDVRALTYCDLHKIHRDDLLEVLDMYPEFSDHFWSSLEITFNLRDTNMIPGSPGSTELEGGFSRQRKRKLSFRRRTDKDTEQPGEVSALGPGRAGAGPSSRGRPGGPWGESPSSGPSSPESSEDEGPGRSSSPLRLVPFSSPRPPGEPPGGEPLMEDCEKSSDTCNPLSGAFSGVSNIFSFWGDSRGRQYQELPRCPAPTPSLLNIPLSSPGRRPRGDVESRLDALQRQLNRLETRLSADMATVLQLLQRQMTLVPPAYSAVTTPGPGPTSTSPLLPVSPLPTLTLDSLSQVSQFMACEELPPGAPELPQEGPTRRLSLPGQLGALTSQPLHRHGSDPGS

Sequence of Aurora kinase B (Homo sapiens) (Q96GD4 whole entry): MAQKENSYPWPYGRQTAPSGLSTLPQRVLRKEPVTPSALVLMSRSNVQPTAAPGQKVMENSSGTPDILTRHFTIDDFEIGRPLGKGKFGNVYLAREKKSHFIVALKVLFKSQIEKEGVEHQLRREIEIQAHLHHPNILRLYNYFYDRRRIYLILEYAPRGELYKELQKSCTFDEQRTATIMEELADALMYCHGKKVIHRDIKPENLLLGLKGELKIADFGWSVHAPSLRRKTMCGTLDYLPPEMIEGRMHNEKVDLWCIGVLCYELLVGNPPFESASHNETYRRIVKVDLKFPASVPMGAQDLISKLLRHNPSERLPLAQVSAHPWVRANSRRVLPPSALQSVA
Sequence of Histone deacetylase 9 (Homo sapiens) (Q9UKV0 whole entry): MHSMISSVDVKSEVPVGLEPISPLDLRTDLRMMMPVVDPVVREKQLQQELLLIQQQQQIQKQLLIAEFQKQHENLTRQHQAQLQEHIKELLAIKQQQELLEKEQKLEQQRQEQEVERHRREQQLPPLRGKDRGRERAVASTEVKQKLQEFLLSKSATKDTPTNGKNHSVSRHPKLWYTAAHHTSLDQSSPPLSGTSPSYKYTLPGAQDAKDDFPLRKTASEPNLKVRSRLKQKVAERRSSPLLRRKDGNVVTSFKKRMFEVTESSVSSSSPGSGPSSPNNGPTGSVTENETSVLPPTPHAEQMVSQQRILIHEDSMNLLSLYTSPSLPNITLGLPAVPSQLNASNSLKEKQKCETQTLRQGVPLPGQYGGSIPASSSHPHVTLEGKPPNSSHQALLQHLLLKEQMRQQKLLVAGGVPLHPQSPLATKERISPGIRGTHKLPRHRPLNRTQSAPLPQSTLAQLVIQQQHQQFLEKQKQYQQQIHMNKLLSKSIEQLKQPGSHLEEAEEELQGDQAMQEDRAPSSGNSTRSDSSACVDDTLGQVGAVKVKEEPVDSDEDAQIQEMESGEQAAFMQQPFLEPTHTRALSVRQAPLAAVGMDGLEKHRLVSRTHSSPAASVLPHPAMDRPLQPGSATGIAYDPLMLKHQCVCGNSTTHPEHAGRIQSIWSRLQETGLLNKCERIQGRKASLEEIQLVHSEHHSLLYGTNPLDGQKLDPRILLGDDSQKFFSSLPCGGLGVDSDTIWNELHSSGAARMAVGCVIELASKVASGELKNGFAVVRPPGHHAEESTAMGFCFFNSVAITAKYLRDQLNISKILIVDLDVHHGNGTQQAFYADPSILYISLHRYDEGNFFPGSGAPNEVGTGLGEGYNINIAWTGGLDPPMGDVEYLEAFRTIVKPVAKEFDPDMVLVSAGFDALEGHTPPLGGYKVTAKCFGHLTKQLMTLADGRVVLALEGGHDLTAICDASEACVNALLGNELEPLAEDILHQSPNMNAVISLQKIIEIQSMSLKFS
Sequence of Histone deacetylase 4 (Homo sapiens) (P56524 whole entry): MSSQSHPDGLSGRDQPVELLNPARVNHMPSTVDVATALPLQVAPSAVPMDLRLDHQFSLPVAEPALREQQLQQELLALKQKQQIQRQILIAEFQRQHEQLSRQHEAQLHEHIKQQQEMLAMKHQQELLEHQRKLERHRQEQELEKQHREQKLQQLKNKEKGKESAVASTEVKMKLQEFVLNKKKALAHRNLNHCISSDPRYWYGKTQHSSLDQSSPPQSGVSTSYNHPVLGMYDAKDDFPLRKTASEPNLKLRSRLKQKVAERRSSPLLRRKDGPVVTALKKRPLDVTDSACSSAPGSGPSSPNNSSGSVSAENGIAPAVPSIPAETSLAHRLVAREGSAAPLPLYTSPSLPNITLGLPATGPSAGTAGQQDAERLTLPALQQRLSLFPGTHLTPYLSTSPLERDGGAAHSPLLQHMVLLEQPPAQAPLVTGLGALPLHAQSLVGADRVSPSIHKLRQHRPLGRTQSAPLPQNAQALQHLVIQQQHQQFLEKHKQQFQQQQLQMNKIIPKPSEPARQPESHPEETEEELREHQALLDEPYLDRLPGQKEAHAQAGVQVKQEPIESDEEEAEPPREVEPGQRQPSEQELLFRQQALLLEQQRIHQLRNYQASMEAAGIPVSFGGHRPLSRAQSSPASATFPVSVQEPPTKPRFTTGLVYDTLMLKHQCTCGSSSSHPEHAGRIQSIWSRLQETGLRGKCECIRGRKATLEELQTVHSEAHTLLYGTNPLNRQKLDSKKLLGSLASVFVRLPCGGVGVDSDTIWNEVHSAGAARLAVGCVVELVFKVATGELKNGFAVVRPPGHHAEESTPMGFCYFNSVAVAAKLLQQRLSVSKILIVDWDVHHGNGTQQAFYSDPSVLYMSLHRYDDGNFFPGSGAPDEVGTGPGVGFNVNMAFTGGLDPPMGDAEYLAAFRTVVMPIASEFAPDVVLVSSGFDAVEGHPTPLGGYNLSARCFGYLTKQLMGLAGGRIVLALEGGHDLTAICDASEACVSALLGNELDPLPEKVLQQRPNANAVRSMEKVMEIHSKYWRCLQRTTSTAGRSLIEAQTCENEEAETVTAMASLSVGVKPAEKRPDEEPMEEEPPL
Sequence of 3',5'-cyclic-AMP phosphodiesterase 4C (Homo sapiens) (Q08493 whole entry): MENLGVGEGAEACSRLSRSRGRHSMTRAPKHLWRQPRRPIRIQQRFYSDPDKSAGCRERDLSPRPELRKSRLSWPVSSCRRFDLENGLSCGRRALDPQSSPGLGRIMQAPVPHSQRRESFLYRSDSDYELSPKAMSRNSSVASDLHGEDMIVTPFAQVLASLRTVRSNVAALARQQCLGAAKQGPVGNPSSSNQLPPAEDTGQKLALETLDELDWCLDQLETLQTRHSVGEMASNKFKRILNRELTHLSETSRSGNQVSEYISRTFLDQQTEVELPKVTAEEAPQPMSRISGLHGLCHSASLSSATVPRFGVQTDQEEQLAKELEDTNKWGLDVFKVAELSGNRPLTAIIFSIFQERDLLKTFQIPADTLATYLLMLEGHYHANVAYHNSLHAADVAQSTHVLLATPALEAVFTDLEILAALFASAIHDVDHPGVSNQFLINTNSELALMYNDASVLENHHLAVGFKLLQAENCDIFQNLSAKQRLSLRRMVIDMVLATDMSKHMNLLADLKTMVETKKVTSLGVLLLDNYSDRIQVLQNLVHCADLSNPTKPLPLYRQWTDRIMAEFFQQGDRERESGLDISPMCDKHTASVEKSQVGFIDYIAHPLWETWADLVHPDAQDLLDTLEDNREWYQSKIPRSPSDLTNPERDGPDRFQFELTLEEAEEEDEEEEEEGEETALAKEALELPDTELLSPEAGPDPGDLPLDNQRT

IC50 [1]: Not Active
IC50 (Aurora kinase A): Not Active
Structure (SMILES): O=C1Nc2ccc(NC(=O)c3cccc(NC(=O)c4cccn(Cc5ccc(F)c(F)c5)c4=O)c3)cc2C1=Cc1cccs1

Structure (SMILES): O=C(N[C@@H](COc1ccc2[nH]c(=O)[nH]c2c1)c1ccccc1)c1cccn(Cc2ccc(F)c(F)c2)c1=O
IC50 [2]: > 30 µM
IC50 (PC-3): > 30 µM
IC50 (HCT-116): > 30 µM
IC50 (CAKI-1): > 30 µM
IC50 [3]: > 30 µM
Emax at 30 µM (NCI-H69 [4]): 80%
IC50 (NCI-H82): > 30 µM
Emax at 30 µM (TC-32 [5]): 80%
IC50 (IGROV-1): > 30 µM
IC50 (Rec1): > 30 µM
IC50 (A673): > 30 µM
IC50 (NCI-H69 [6]): 13.9 µM
IC50 (TC-32 [7]): 13.9 µM
IC50 (MCF7): > 30 µM
IC50 (SK-N-MC): > 30 µM
IC50 (786-0): > 30 µM

IC50 (Aurora kinase A): Not Active
Structure (SMILES): O=C(CCCNC(=O)c1cccn(Cc2ccc(F)c(F)c2)c1=O)Nc1ccc2c(c1)C(=Cc1cccs1)C(=O)N2

Structure (SMILES): O=C(CCNC(=O)c1cccn(Cc2ccc(F)c(F)c2)c1=O)Nc1ccc2c(c1)C(=Cc1cccs1)C(=O)N2
IC50 (Aurora kinase A): Not Active

inhibition [9]: < 20%
inhibition [10]: < 30%
inhibition [11]: < 30%
inhibition [12]: < 30%
IC50 (Aurora kinase A; read-out: IC50): > 10 µM
inhibition [13]: < 30%
inhibition [14]: < 30%
inhibition [15]: < 30%
Structure (SMILES): O=C1Nc2ccc(NC(=O)c3cccc(NC(=O)c4cccn(Cc5ccc(F)c(F)c5)c4=O)c3)cc2/C1=C/c1cnc[nH]1
Activity [8]: < 25%
Activity (HEK293): < 25%

Structure (SMILES): O=C(CCNC(=O)c1cccn(Cc2ccc(F)c(F)c2)c1=O)Nc1ccc2c(c1)/C(=C/c1ncc[nH]1)C(=O)N2
IC50 (Aurora kinase A): Not Active

inhibition [9]: < 20%
inhibition [10]: < 30%
inhibition [11]: < 30%
inhibition [12]: < 30%
IC50 (Aurora kinase A; read-out: IC50): > 10 µM
inhibition [13]: < 30%
inhibition [14]: < 30%
inhibition [15]: < 30%
Structure (SMILES): Cc1c(Br)cc(C(=O)NCC(=O)Nc2ccc3c(c2)/C(=C/c2cnc[nH]2)C(=O)N3)c(=O)n1Cc1ccc(F)c(F)c1
Activity [8]: < 25%
Activity (HEK293): < 25%

IC50 [1]: Not Active
IC50 (Aurora kinase A): Not Active
Structure (SMILES): CCN(C)CC(=O)c1c[nH]c2ccc(NC(=O)[C@H](NC(=O)c3cccn(Cc4ccc(F)c(F)c4)c3=O)c3ccccc3)cc12

IC50 [1]: Not Active
IC50 (Aurora kinase A): Not Active
Structure (SMILES): CN1CCN(CC(=O)c2c[nH]c3ccc(NC(=O)[C@H](NC(=O)c4cccn(Cc5ccc(F)c(F)c5)c4=O)c4ccccc4)cc23)CC1

IC50 [1]: Not Active
IC50 (Aurora kinase A): Not Active
Structure (SMILES): O=C(CCNC(=O)c1cccn(Cc2ccc(F)c(F)c2)c1=O)Nc1ccc2c(c1)/C(=C\c1ccc(F)cc1)C(=O)N2

inhibition [9]: < 20%
inhibition [10]: < 30%
inhibition [11]: < 30%
inhibition [12]: < 30%
inhibition [13]: < 30%
inhibition [14]: < 30%
inhibition [15]: < 30%
Structure (SMILES): O=C(CCCNC(=O)c1cccn(Cc2ccc(F)c(F)c2)c1=O)Nc1ccc2c(c1)/C(=C/c1cnc[nH]1)C(=O)N2
inhibition at 10 µM [16]: 53%
Activity [8]: < 25%
Activity (HEK293): < 25%
